Reference: patent US20260015315A1, “AMINO LIPID COMPOUND, PREPARATION METHOD THEREFOR, COMPOSITION THEREOF AND APPLICATION THEREOF” (SHENZHEN SHENXIN BIOTECHNOLOGY CO., LTD., priority 2022, published 2026)

Key:
BALB/c mice = assay: In vivo delivery of lipid nanoparticle encapsulating luciferase mRNA (Fluc mRNA), IVIS imaging; details: for Total flux (fluorescence expression intensity): Fluc mRNA-LNP (amino lipid:DSPC:CHO-HP:PEG2000-DMG 48:10:40.5:1.5), whole body; for Total flux (fluorescence expression intensity) / Spleen (fluorescence expression intensity) / Liver (fluorescence expression intensity): 75 μL tail vein IV, female BALB/c mice, IVIS 6 hours after injection; for Spleen (fluorescence expression intensity) / (Spleen/Total Flux) * 100% / Multiple of spleen delivery/total delivery (Spleen/Total Flux) to Compound 118 / Liver (fluorescence expression intensity): Fluc mRNA-LNP; for (Spleen/Total Flux) * 100% / Multiple of spleen delivery/total delivery (Spleen/Total Flux) to Compound 118: tail vein IV, BALB/c mice, 6 hours; for Multiple of spleen delivery/total delivery (Spleen/Total Flux) to Compound 118: relative to Compound 118
Procedure: The amino lipid compound of the present disclosure, a helper lipid, a structural lipid, and a PEG-lipid were separately dissolved in absolute ethanol to prepare respective solutions at concentrations of 20 mg/mL, 10 mg/mL, 20 mg/mL, and 25 mg/mL, respectively. The above four solutions were pipetted at a molar ratio of the amino lipid compound: DSPC:CHO-HP:PEG2000-DMG of 48:10:40.5:1.5, and mixed well to prepare an alcohol phase.
(2) Encapsulation: The water phase and the alcohol phase were injected into a microfluidic chip at a flow rate of water phase:alcohol phase=12 mL/min: 4 mL/min by using a microfluidic preparation instrument (MPE-L2), and encapsulation was carried out at a flow rate of water phase:alcohol phase=9 mL/min: 3 mL/min to obtain mRNA-encapsulating lipid nanoparticle (mRNA-LNP).
(3) Dialysis: The product of step (2) was loaded in a dialysis bag and placed in a Tris Buffer-8% sucrose solution for replacement to remove ingredients such as residual ethanol, unassembled lipids. Dialysis was conducted for 2 h with magnetic stirring at room temperature and under protection from light (dialysate was replaced every 1 hour).
(4) The product of step (3) was sterilized by passing through a 0.22 μm microporous membrane, and then packaged.
Lipid nanoparticle formulations encapsulating Flue mRNA were prepared, with a concentration of Flue mRNA of 0.2 μg/μL, a mass ratio of Flue mRNA to Lipid of 1:10, a particle size of 80-130 nm, and a encapsulation efficiency of 80% or higher.
• Animal preparation: Female BALB/c mice of 6-8 weeks old were selected and raised in an SPF grade breeding room. Animal testing was conducted in strict accordance with the guidelines of national health institutions and animal ethics requirements.
In vivo Delivery: prior to injection of the test LNP formulations, the LNP formulations were gently and repeatedly inverted to thoroughly mix the formulation samples. A corresponding amount of the formulation samples were aspirated with a 1 ml insulin syringe, and the LNP formulations were injected by tail vein injection (IV), with 3 mice in duplicate per formulation. Each mouse was injected with 75 μL of the luciferase mRNA (Flue mRNA)-encapsulating lipid nanoparticle formulation prepared in Experimental Example 1.
6 hours after injection of LNP formulations, mice were injected with 200 μL D-Luciferin luciferase developing substrate (Catalog No. 122799; Manufacturer: Perkin Elmer). After the substrate was injected, the mice were anesthetized by injection of 200 μl of 2.5% avertin, and the injection time of luciferase developing substrate was recorded.
The fluorescence expression intensity induced by the lipid nanoparticle encapsulating luciferase mRNA (Flue mRNA) with a representative amino lipid compound is shown in Table 4, with the amino lipid compound 118 as a control.

[1] = test system: immune cell populations in different tissues and organs; assay: Delivery efficiency of eGFP mRNA encapsulating LNP to immune cell populations in different tissues and organs (flow cytometry); format: in vivo; details: eGFP mRNA-LNP intravenous, C57BL/6 mice, 6 hours; spleen, axillary lymph nodes, peripheral blood, bone marrow, lungs, liver; FIGS. 1A to 1F
Procedure: C57BL/6 mice (3 mice per group) were intravenously injected with eGFP mRNA encapsulating LNP. After 6 hours, the mice were dissected, and the spleen, axillary lymph nodes, peripheral blood, bone marrow, lungs and liver were collected to prepare single-cell suspensions of various tissues and organs. After blocking with Fe blocking antibodies and surface staining with fluorescent-labeled antibodies, sample analysis was conducted by flow cytometry to analyze the expression levels of eGFP in various immune cell populations to confirm the delivery efficiency of lipid nanoparticles comprising different amino lipid compounds to immune cell populations in different tissues and organs.

Row | SMILES | Total flux (fluorescence expression intensity) (BALB/c mice) | Spleen (fluorescence expression intensity) (BALB/c mice) | (Spleen/Total Flux) * 100% (BALB/c mice) [%] | Multiple of spleen delivery/total delivery (Spleen/Total Flux) to Compound 118 (BALB/c mice) | Delivery preference to immune cells (eGFP expression in immune cell populations) [1] | Liver (fluorescence expression intensity) (BALB/c mice)
1 | CCCCCCC(CCCCCC)OC(=O)CCCCCCCCC(CCCCCCCCC(=O)OC(CCCCCC)CCCCCC)N(CCCN(C)C)C(=O)CCCOCCCCC [compound 130] | 5.73E+07 | 1.13E+07 | 19.72 | 17.30 | clear delivery preference to immune cells in various tissues and organs | 
2 | CCCCCCOCCCC(=O)N(CCCN(C)C)C(CCCCCCCCC(=O)OC(CCCCCC)CCCCCC)CCCCCCCCC(=O)OC(CCCCCC)CCCCCC [compound 131] | 3.26E+07 | 6.59E+06 | 20.21 | 17.73 | clear delivery preference to immune cells in various tissues and organs | 
3 | CCCCCCCCOCCCC(=O)N(CCCN(C)C)C(CCCCCCCCC(=O)OC(CCCCCC)CCCCCC)CCCCCCCCC(=O)OC(CCCCCC)CCCCCC [compound 133] | 3.58E+07 | 1.25E+07 | 34.92 | 30.63 | clear delivery preference to immune cells in various tissues and organs | 
4 | CCCCCCC(CCCCCC)OC(=O)CCCCCCCCC(CCCCCCCCC(=O)OC(CCCCCC)CCCCCC)N(CCCCN(C)C)C(=O)COCCCCC [compound 167] | 4.02E+07 | 7.64E+06 | 19.00 | 16.67 |  | 4.42E+06
5 | CCCCCCOCC(=O)N(CCCCN(C)C)C(CCCCCCCCC(=O)OC(CCCCCC)CCCCCC)CCCCCCCCC(=O)OC(CCCCCC)CCCCCC [compound 168] | 2.68E+07 | 8.95E+06 | 33.40 | 29.29 |  | 9.12E+06
6 | CCCCCCCOCC(=O)N(CCCCN(C)C)C(CCCCCCCCC(=O)OC(CCCCCC)CCCCCC)CCCCCCCCC(=O)OC(CCCCCC)CCCCCC [compound 169] | 1.17E+07 | 5.11E+06 | 43.68 | 38.31 |  | 6.59E+06
7 | CCCCCCCCOCC(=O)N(CCCCN(C)C)C(CCCCCCCCC(=O)OC(CCCCCC)CCCCCC)CCCCCCCCC(=O)OC(CCCCCC)CCCCCC [compound 170] | 2.89E+07 | 1.07E+07 | 37.02 | 32.48 |  | 1.34E+07
8 | CCCCCCC(CCCCCC)OC(=O)CCCCCCCCC(CCCCCCCCC(=O)OC(CCCCCC)CCCCCC)N(CCCCN(C)C)C(=O)CCOCCCC [compound 171] | 1.15E+07 | 3.97E+06 | 34.52 | 30.28 |  | 5.33E+06
9 | CCCCCCC(CCCCCC)OC(=O)CCCCCCCCC(CCCCCCCCC(=O)OC(CCCCCC)CCCCCC)N(CCCCN(C)C)C(=O)CCOCCCCC [compound 172] | 8.64E+07 | 9.69E+06 | 11.22 | 9.84 |  | 3.10E+07
10 | CCCCCCOCCC(=O)N(CCCCN(C)C)C(CCCCCCCCC(=O)OC(CCCCCC)CCCCCC)CCCCCCCCC(=O)OC(CCCCCC)CCCCCC [compound 173] | 2.07E+07 | 8.03E+06 | 38.79 | 34.03 |  | 9.15E+06
11 | CCCCCCCOCCC(=O)N(CCCCN(C)C)C(CCCCCCCCC(=O)OC(CCCCCC)CCCCCC)CCCCCCCCC(=O)OC(CCCCCC)CCCCCC [compound 174] | 9.59E+07 | 7.28E+06 | 7.59 | 6.66 |  | 1.62E+07
12 | CCCCCCCCOCCC(=O)N(CCCCN(C)C)C(CCCCCCCCC(=O)OC(CCCCCC)CCCCCC)CCCCCCCCC(=O)OC(CCCCCC)CCCCCC [compound 175] | 5.15E+07 | 1.21E+07 | 23.50 | 20.61 |  | 1.57E+07
13 | CCCCCCC(CCCCCC)OC(=O)CCCCCCCCC(CCCCCCCCC(=O)OC(CCCCCC)CCCCCC)N(CCCCN(C)C)C(=O)CCCOCCCCC [compound 177] | 2.52E+07 | 3.23E+06 | 12.82 | 11.24 |  | 5.04E+06
14 | CCCCCCOCCCC(=O)N(CCCCN(C)C)C(CCCCCCCCC(=O)OC(CCCCCC)CCCCCC)CCCCCCCCC(=O)OC(CCCCCC)CCCCCC [compound 178] | 6.68E+07 | 3.95E+06 | 5.91 | 5.19 |  | 1.15E+07
